# Assay results: US8987424B2, “CA6 antigen-specific cytotoxic conjugate and methods of using the same” (ImmunoGen, Inc., priority 2003, dated 2015)
# “Also recorded” adds a separate entry of the source.
# Experiments:
# [1] = mice, single intravenous dose of 12.5 μg/kg; cited from earlier work
# BT-20 cells = assay: Clonogenic assay; assay type: cell-based; conditions: Homo sapiens, 72 h exposure to free maytansine
# Description: (§1) The cytotoxicity of maytansinoid conjugated muDS6 antibody was examined using 2 different assay formats in various DS6 positive cell lines. Clonogenic assays were conducted where cells (1000-2500 cells/well) were plated on 6-well plates in 2 ml of conjugate diluted in culture media. […] The wells were washed with PBS and the colonies were stained with a 1% w/v crystal violet/10% v/v formaldehyde/PBS solution. Unbound stain was then washed thoroughly from the wells with distilled water, and the plates were allowed to dry. The colonies were counted using a Leica StereoZoom 4 dissecting microscope.
# (§2) Plating efficiency (PE) was calculated as the number of colonies/number of cells plated. Surviving fraction was calculated as PE of treated cells/PE of non-treated cells. The IC50 concentration was determined by graphing the surviving fraction of cells vs. the molar concentration of the conjugate.
# BT-483 cells = assay: Clonogenic assay; assay type: cell-based; conditions: Homo sapiens, 72 h exposure to free maytansine
# Description: as §1, §2
# Caov-3 cells = assay: Clonogenic assay; assay type: cell-based; conditions: Homo sapiens, 72 h exposure to free maytansine
# Description: as §1, §2
# Caov-4 cells = assay: Clonogenic assay; assay type: cell-based; conditions: Homo sapiens, 72 h exposure to free maytansine
# Description: as §1, §2
# HPAC cells = assay: Clonogenic assay; assay type: cell-based; conditions: Homo sapiens, 72 h exposure to free maytansine
# Description: as §1, §2
# HPAF-II cells = assay: Clonogenic assay; assay type: cell-based; conditions: Homo sapiens, 72 h exposure to free maytansine
# Description: as §1, §2
# Hs766T cells = assay: Clonogenic assay; assay type: cell-based; conditions: Homo sapiens, 72 h exposure to free maytansine
# Description: as §1, §2
# KB cells [2] = assay: Clonogenic assay; assay type: cell-based; conditions: Homo sapiens, 72 h exposure to free maytansine
# Description: as §1, §2
# T-47D cells = assay: Clonogenic assay; assay type: cell-based; conditions: Homo sapiens, T47D, 72 h exposure to free maytansine
# Description: as §1, §2
# TOV-21G cells = assay: Clonogenic assay; assay type: cell-based; conditions: Homo sapiens, TOV21G, 72 h exposure to free maytansine
# Description: as §1, §2
# WISH cells [3] = assay: Clonogenic assay; assay type: cell-based; conditions: Homo sapiens, 72 h exposure to free maytansine
# Description: as §1, §2
# ZR-75-1 cells = assay: Clonogenic assay; assay type: cell-based; conditions: Homo sapiens, 72 h exposure to free maytansine
# Description: as §1, §2
# HeLa cells [4] = assay: Clonogenic assay; assay type: cell-based, human
# Description: as §1, §2
# OVCAR5 cells = assay: Clonogenic assay; assay type: cell-based, human
# Description: as §1, §2
# HeLa cells [5] = assay: Flow cytometry binding assay; design: species or system human; conditions: HeLa cells, versus muDS6 antibody
# Description: (§3) Cells were maintained in a 37° C., 5% CO2 humidified incubator.
# (§4) Cells ([…]) were incubated, on ice for 3-4 h, with serially diluted concentrations of the DS6 antibody prepared in FACS buffer (2% goat serum, RPMI) into 96-well plates. The cells were spun down in a table top centrifuge at 1500 rpm for 5 min at 4° C. After removing the media, the wells were then refilled with 150 μl of FACS buffer. The wash step was then repeated. FITC-labeled goat anti-mouse IgG (Jackson Immunoresearch) was diluted 1:100 to FACS buffer and incubated with the cells for 1 h on ice. The plate was covered in foil to prevent photobleaching of the signal. After two washes, the cells were fixed with 1% formaldehyde and analyzed on a flow cytometer.
# WISH cells [6] = assay: MTT cell viability assay; assay type: cell-based, human
# Description: In the MTT assay, cells were seeded in 96-well plates at a density of 1000-5000 cells/well. The cells were plated with serial dilutions of either naked muDS6 or muDS6-DM1 immunoconjugate in 200 μl of culture media. The samples were run in triplicate. The cells and antibody/conjugate mixtures were then incubated for 2-7 d, at which time cell viability was assessed by an MTT ([3(4,5-dimethylthiazol-2-yl)-2,5-diphenyl tetrazolium bromide)] assay. MTT (50 μg/well) was added to the culture supernatant and allowed to incubate for 3-4 h at 37° C. The media was removed and the MTT formazan was solubilized in DMSO (175 μl/well). The absorbance at 540-545 nm was measured. […] The wells with the highest concentrations of conjugate contained no viable cells as compared to naked antibody which had no effect (FIGS. 21 and 24).
# (§5) The binding was conducted essentially as described for FIG. 20 except that KB cells were used rather than CaOv-3 cells.
# KB cells [7] = assay: Flow cytometry binding assay; design: species or system human; conditions: KB cells, versus unmodified antibody
# Description: as §3, §4
# The affinity of the purified huIgG was compared with muDS6 by flow cytometry. In the first set of experiments direct binding to a CA6-expressing cell line, KB, was measured. […] To confirm that the huDS6 versions retain the affinity of muDS6, competitive binding experiments were conducted. The advantage of this format is that the same detection system is used for both murine and human antibodies; that is biotin-muDS6/streptavidin-DTAF.
# as §5
# HPAC xenografts = assay: HPAC pancreatic cancer model with humanized DS6 conjugate; assay type: in vivo, mice
# Description: The in vivo activity of huDS6v1.01-DM4 was tested on the HPAC pancreatic model. HPAC cells were inoculated on day 0, and immunoconjugate treatments were given on day 13. PBS control animals were euthanized once tumor volumes exceeded 1000 mm^3. The conjugate was given at a dose of either 200 μg/kg or 600 μg/kg DM4, corresponding to an antibody concentration 15 mg/kg and 45 mg/kg, respectively. Tumor volume (FIG. 30A) and body weight (FIG. 30B) of the mice were monitored during the course of the study.
# [8] = clinical trial patients; cited from earlier work
molecule,measurement,setting,value
COc1c(O)c2c(c3cc(C(=O)N4CCc5c4c(O)c(OC)c4[nH]c(C(=O)N6CC7CC78C6=CC(=O)c6[nH]cc(C)c68)cc54)[nH]c13)CCN2C(N)=O (centres unmarked) [CC-1065],day of mortality from delayed hepatotoxicity,[1],50 days
"COc1cc2cc(c1Cl)N(C)C(=O)C[C@H](OC(=O)[C@H](C)N(C)C(C)=O)[C@]1(C)O[C@H]1[C@H](C)[C@@H]1C[C@@](O)(NC(=O)O1)[C@H](OC)/C=C/C=C(\C)C2 [Maytansine, maytansine]",IC50,BT-20 cells,0.35 nM
same,IC50,BT-483 cells,0.15 nM
same,IC50,Caov-3 cells,0.032 nM
same,IC50,Caov-4 cells,0.6 nM
same,IC50,HPAC cells,0.055 nM
same,IC50,HPAF-II cells,0.6 nM
same,IC50,Hs766T cells,> 3 nM
same,IC50,KB cells [2],0.03 nM
same,IC50,T-47D cells,0.12 nM
same,IC50,TOV-21G cells,0.048 nM
same,IC50,WISH cells [3],0.09 nM
same,IC50,ZR-75-1 cells,0.1 nM
same,fold less maytansine sensitive,HeLa cells [4]; HeLa versus TOV-21G and HPAC,2-7 fold
same,IC50,"HeLa cells [4]; Homo sapiens, HeLa, 72 h exposure to free maytansine",0.1 nM
same,IC50,"OVCAR5 cells; Homo sapiens, OVCAR-5, OVCAR5, 72 h exposure to free maytansine",0.32 nM
same,fold less maytansine sensitive,OVCAR5 cells; OVCAR5 versus TOV-21G and HPAC,2-7 fold
DS6-MM1-202 (conjugate) VH: QAYLQQSGAELVRSGASVKMSCKASGYTFTSYNMHWVKQTPGQGLEWIGYIYPGNGATNYNQKFKGKATLTADPSSSTAYMQISSLTSEDSAVYFCARGDSVPFAYWGQGTLVTVSA VL: QIVLTQSPAIMSASPGEKVTITCSAHSSVSFMHWFQQKPGTSPKLWIYSTSSLASGVPARFGGSGSGTSYSLTISRMEAEDAATYYCQQRSSFPLTFGAGTKLELKR,effect of conjugation on binding activity,HeLa cells [5],retains binding activity
"huDS6v1.01: humanized (resurfaced) DS6 version 1.01, heavy chain with the human 28E4 T73 (antibody, V domains shown) VH: QAQLVQSGAEVVKPGASVKMSCKASGYTFTSYNMHWVKQTPGQGLEWIGYIYPGNGATNYNQKFQGKATLTADTSSSTAYMQISSLTSEDSAVYFCARGDSVPFAYWGQGTLVTVSA VL: EIVLTQSPATMSASPGERVTITCSAHSSVSFMHWFQQKPGTSPKLWIYSTSSLASGVPARFGGSGSGTSYSLTISSMEAEDAATYYCQQRSSFPLTFGAGTKLELKR",cytotoxic activity of unconjugated antibody,WISH cells [6],no cytotoxic activity
huDS6v1.01-DM4 (conjugate) VH: QAQLVQSGAEVVKPGASVKMSCKASGYTFTSYNMHWVKQTPGQGLEWIGYIYPGNGATNYNQKFQGKATLTADTSSSTAYMQISSLTSEDSAVYFCARGDSVPFAYWGQGTLVTVSA VL: EIVLTQSPATMSASPGERVTITCSAHSSVSFMHWFQQKPGTSPKLWIYSTSSLASGVPARFGGSGSGTSYSLTISSMEAEDAATYYCQQRSSFPLTFGAGTKLELKR,effect of conjugation on affinity/avidity,KB cells [7],essentially no loss of affinity; also recorded: little effect on the avidity
same,toxicity / body weight,HPAC xenografts; 200 μg/kg DM4,lack of body weight loss; also recorded: not toxic
same,anti-tumor activity,"HPAC xenografts; 200 μg/kg DM4, treatment on day 13",all mice achieving complete tumor regression; also recorded: potent anti-tumor activity
"cantuzumab mertansine: huC242-DM1 antibody-maytansinoid conjugate tested in a clinical trial (conjugate, chains of the INN, looked up, DM1 maytansinoid conjugate, huC242-DM1 antibody-maytansinoid conjugate tested in a clinical trial) VH: QVQLVQSGAEVKKPGETVKISCKASDYTFTYYGMNWVKQAPGQGLKWMGWIDTTTGEPTYAQKFQGRIAFSLETSASTAYLQIKSLKSEDTATYFCARRGPYNWYFDVWGQGTTVTVSS VL: DIVMTQSPLSVPVTPGEPVSISCRSSKSLLHSNGNTYLYWFLQRPGQSPQLLIYRMSNLVSGVPDRFSGSGSGTAFTLRISRVEAEDVGVYYCLQHLEYPFTFGPGTKLELK",correlation of pretreatment shed CanAg levels with pharmacokinetics of antibody clearance,[8],no correlation
